Reference: US20250388605A1, “HETEROBIFUNCTIONAL COMPOUNDS AND METHODS OF TREATING DISEASE” (Halda Therapeutics OpCo, Inc., priority 2022, published 2025)

Tests used:
VCaP cells = assay: Cellular growth inhibition assay for VCaP cells, CellTiter-Glo; format: cell-based, human; conditions: 72 hours
Method: VCaP cells were purchased from American Type Cell Culture (ATCC Cat #CRL2876) and then seeded on poly-D-lysine coated, black clear-bottom 384-well plates at 5000/well in 25 μL Dulbecco's Modified Eagle Medium (DMEM) supplemented with 10% w/w Fetal bovine serum (FBS) and 1% w/w Pen-Strep. Pen-Strep is a commercially available mixture of penicillin G and streptomycin, which is used in mammalian cell culture media to prevent bacterial contamination. Dulbecco's Modified Eagle Medium (DMEM) supplemented with 10% w/w fetal bovine serum (FBS) and 1% w/w Pen-Strep is herein referred to as Treatment Medium. Following seeding of cells in the plates, the plates were spun at 300×g for 30 seconds, then equilibrated to room temperature for 30 minutes, and then deposited in a humidified tissue culture incubator maintained at 37° C. with 5% CO2.
(§1) At 24 hours after seeding of the cells, dilutions of test compound were prepared in DMSO and dissolved in Treatment Medium, to achieve a final DMSO concentration of 0.5% w/w, thereby providing the Test Compound Solution. A 25 μL aliquot of the Test Compound Solution was added to cells in the well plates. An equal volume of a solution containing DMSO and Treatment Medium was used as a negative control. Following treatment of cells with Test Compound Solution or said equal volume of a solution containing DMSO and Treatment Medium, the plates were spun at 300×g for 30 seconds, and then left in an incubator for 72 hours.
(§2) At the end of the treatment duration, cell viability was quantified with CellTiter-Glo 2.0 reagent (Promega Cat #G9243). For this purpose, plates were equilibrated to room temperature for 30 minutes, and then 25 μL of CellTiter-Glo 2.0 reagent was added to cells in the plate wells. Plates were then agitated on a shaker for two minutes at 500 rpm and subsequently incubated at room temperature for 10 minutes. Following incubation, the plates were spun at 3000×g for 30 seconds, then sealed with an optical adhesive cover, and luminescence readings were measured with an EnVision Plate Reader.
(§3) Data was normalized using zero luminescence for baseline. A four-parameter non-linear regression curve fit was applied to dose-response data in GraphPad Prism data analysis software to determine the half-maximal growth inhibitory concentration (GI50) for each test compound.

[1] = test system: T-Rex 293 cell line SC3 cells lacking increased expression of androgen receptor protein; assay: Cellular growth inhibition, T-Rex 293 SC3 cells without doxycycline (no increased androgen receptor expression), CellTiter-Glo; format: cell-based; conditions: T-Rex 293 SC3 cells not exposed to doxycycline (no increased androgen receptor expression), 72 hours
Method: (§4) The following types of cells were prepared for this experiment: (i) a T-Rex 293 cell line having increased expression of androgen receptor protein due to exposure to doxycycline and (ii) a T-Rex 293 cell line lacking increased expression of androgen receptor protein. Ability of the test compounds to inhibit proliferation of the foregoing cell types was evaluated according to the procedures set forth below.
(§5) The doxycycline-inducible androgen receptor protein expressing cell line was established using the following protocol: T-Rex 293 cells were purchased from Invitrogen (Cat #R71007) and transfected using Lipofectamine 2000 with the wild-type androgen receptor protein sequence cloned into the pcDNA4/TO vector. Transfected cells were selected using 400 μg/mL Zeocin (Invitrogen Cat #R25001). Following selection, single clones were raised and maintained in Dulbecco's Modified Eagle Medium (DMEM) supplemented with 10% w/w Tetracycline-free fetal bovine serum (FBS) and 250 μg/mL Zeocin. Clones were analyzed for expression of androgen receptor protein in the presence and absence of 10 ng/mL doxycycline (Sigma Cat #D9891), and a single doxycycline-inducible clone (hereinafter “SC3”) was selected for use in downstream assays.
(§6) The SC3 cells were seeded on poly-D-lysine coated, black clear-bottom 384-well plates at 2500/well, in 25 μL Phenol Red Free Dulbecco's Modified Eagle Medium (DMEM) supplemented with 10% w/w charcoal-dextran treated fetal bovine serum (FBS) and 1% w/w pen-strep, with or without 10 ng/mL doxycycline. Pen-Strep is a commercially available mixture of penicillin G and streptomycin, which is used in mammalian cell culture media to prevent bacterial contamination. Phenol Red Free Dulbecco's Modified Eagle Medium (DMEM) supplemented with 10% w/w charcoal-dextran treated fetal bovine serum (FBS) and 1% w/w pen-strep, with or without 10 ng/mL doxycycline is herein referred to as Treatment Medium. Following seeding of cells in the plates, the plates were spun at 300×g for 30 seconds, then equilibrated to room temperature for 30 minutes, and then deposited in a humidified tissue culture incubator maintained at 37° C. with 5% CO2.
as §1, §2, §3

[2] = test system: T-Rex 293 cell line SC3 cells having increased expression of androgen receptor protein due to exposure to doxycycline; assay: Cellular growth inhibition, T-Rex 293 SC3 cells with doxycycline (increased androgen receptor expression), CellTiter-Glo; format: cell-based; conditions: T-Rex 293 SC3 cells with 10 ng/mL doxycycline (increased androgen receptor expression), 72 hours, CellTiter-Glo 2.0
Method: as §4, §5, §6, §1, §2, §3

Row | GI50 (VCaP cells; Homo sapiens) [nM] | GI50 (VCaP cells) [nM] | SMILES | GI50 [1] [nM] | GI50 [2] [nM]
1 | > 3000 | – | CCC(=O)Nc1ccc(Oc2cccc(OCCOC3CCN(c4ncc(C(=O)N[C@H]5C(C)(C)[C@H](Oc6ccc(C#N)c(Cl)c6)C5(C)C)cn4)CC3)c2)c(-c2cn(C)c(=O)c3[nH]ccc23)c1 [Compound I-59, N-((1r, 3r)-3-(3-chloro-4-cyanophenoxy)-2,2,4,4-tetramethylcyclobutyl)-2-(4-(2-(3-(2-(6-methyl-7-oxo-6,7-dihydro-1H-pyrrolo[2,3-c]pyridin-4-yl)-4-propionamidophenoxy)phenoxy)ethoxy)piperidin-1-yl)pyrimidine-5-carboxamide] | > 3000 | < 500
2 | < 500 | – | CCC(=O)N(C)c1ccc(Oc2cccc(OCCOC3CCN(c4ncc(C(=O)N[C@H]5C(C)(C)[C@H](Oc6ccc(C#N)c(Cl)c6)C5(C)C)cn4)CC3)c2)c(-c2cn(C)c(=O)c3[nH]ccc23)c1 [Compound I-60] | > 3000 | < 500
3 | < 500 | – | CCS(=O)(=O)Nc1ccc(Oc2cccc(C(=O)N(C)CCOC3CCN(c4ncc(C(=O)N[C@H]5C(C)(C)[C@H](Oc6ccc(C#N)c(Cl)c6)C5(C)C)cn4)CC3)c2)c(-c2cn(C)c(=O)c3[nH]ccc23)c1 [Compound I-66, N-((1r, 3r)-3-(3-chloro-4-cyanophenoxy)-2,2,4,4-tetramethylcyclobutyl)-2-(4-(2-(3-(4-(ethylsulfonamido)-2-(6-methyl-7-oxo-6,7-dihydro-1H-pyrrolo[2,3-c]pyridin-4-yl)phenoxy)-N-methylbenzamido)ethoxy)piperidin-1-yl)pyrimidine-5-carboxamide] | > 3000 | < 500
4 | < 500 | – | CCS(=O)(=O)Nc1ccc(Oc2cccc(OCCN3CCN(c4ncc(C(=O)N[C@H]5C(C)(C)[C@H](Oc6ccc(C#N)c(Cl)c6)C5(C)C)cn4)CC3)c2)c(-c2cn(C)c(=O)c3[nH]ccc23)c1 [Compound I-77] | < 500 | < 500
5 | < 500 | – | CCS(=O)(=O)Nc1ccc(Oc2cccc(OCCNC3CCN(c4ncc(C(=O)N[C@H]5C(C)(C)[C@H](Oc6ccc(C#N)c(Cl)c6)C5(C)C)cn4)CC3)c2)c(-c2cn(C)c(=O)c3[nH]ccc23)c1 [Compound I-85] | 500 to 1500 | < 500
6 | < 500 | – | CCS(=O)(=O)Nc1ccc(Oc2cccc(N(C)CCN(C)C3CCN(c4ncc(C(=O)N[C@H]5C(C)(C)[C@H](Oc6ccc(C#N)c(Cl)c6)C5(C)C)cn4)CC3)c2)c(-c2cn(C)c(=O)c3[nH]ccc23)c1 [Compound I-86] | < 500 | < 500
7 | < 500 | – | CCS(=O)(=O)Nc1ccc(Oc2cccc(OCCN(C)C3CCN(c4ncc(C(=O)N[C@H]5C(C)(C)[C@H](Oc6ccc(C#N)c(Cl)c6)C5(C)C)cn4)CC3)c2)c(-c2cn(C)c(=O)c3[nH]ccc23)c1 [Compound I-87] | < 500 | < 500
8 | < 500 | – | CCS(=O)(=O)Nc1ccc(Oc2cc(OCCOC3CCN(c4ncc(C(=O)N[C@H]5C(C)(C)[C@H](Oc6ccc(C#N)c(Cl)c6)C5(C)C)cn4)CC3)ccn2)c(-c2cn(C)c(=O)c3[nH]ccc23)c1 [Compound I-111] | > 3000 | < 500
9 | > 3000 | – | CCS(=O)(=O)Nc1ccc(-n2ccc(OCCOC3CCN(c4ncc(C(=O)NC5C(C)(C)C(Oc6ccc(C#N)c(Cl)c6)C5(C)C)cn4)CC3)cc2=O)c(-c2cn(C)c(=O)c3[nH]ccc23)c1 (stereo not drawn) [Compound I-112, N-[3-(3-chloro-4-cyano-phenoxy)-2,2,4,4-tetramethyl-cyclobutyl]-2-[4-[2-[[1-[4-(ethylsulfonylamino)-2-(6-methyl-7-oxo-1H-pyrrolo[2,3-c]pyridin-4-yl)phenyl]-2-oxo-4-pyridyl]oxy]ethoxy]-1-piperidyl]pyrimidine-5-carboxamide] | > 3000 | < 500
10 | < 500 | – | CCS(=O)(=O)Nc1ccc(Oc2cccc(N(C)CCOC3CCN(c4ncc(C(=O)N[C@H]5C(C)(C)[C@H](Oc6ccc(C#N)c(Cl)c6)C5(C)C)cn4)CC3)c2)c(-c2cn(C)c(=O)c3[nH]ccc23)c1 [Compound I-113] | < 500 | < 500
11 | < 500 | – | CCS(=O)(=O)Nc1ccc(Oc2cc(F)cc(OCCOC3CCN(c4ncc(C(=O)N[C@H]5C(C)(C)[C@H](Oc6ccc(C#N)c(Cl)c6)C5(C)C)cn4)CC3)c2)c(-c2cn(C)c(=O)c3[nH]ccc23)c1 [Compound I-127] | > 3000 | < 500
12 | < 500 | – | CCS(=O)(=O)Nc1ccc(Oc2ccc(F)c(OCCOC3CCN(c4ncc(C(=O)N[C@H]5C(C)(C)[C@H](Oc6ccc(C#N)c(Cl)c6)C5(C)C)cn4)CC3)c2)c(-c2cn(C)c(=O)c3[nH]ccc23)c1 [Compound I-128] | > 3000 | < 500
13 | – | < 500 | Cn1cc(-c2cc(NS(=O)(=O)C3CC3)ccc2Oc2cccc(OCCC3CCN(c4ncc(C(=O)N[C@H]5C(C)(C)[C@H](Oc6ccc(C#N)c(Cl)c6)C5(C)C)cn4)CC3)c2)c2cc[nH]c2c1=O [Compound I-130] | > 3000 | < 500
14 | – | > 3000 | CC(C)c1ccc(Oc2cccc(OCCC3CCN(c4ncc(C(=O)N[C@H]5C(C)(C)[C@H](Oc6ccc(C#N)c(Cl)c6)C5(C)C)cn4)CC3)c2F)c(-c2cn(C)c(=O)c3[nH]ccc23)c1 [Compound I-132] | > 3000 | > 3000
15 | – | < 500 | Cn1cc(-c2cc(NS(=O)(=O)C3CC3)ccc2Oc2cccc(CCCN3CCN(c4ncc(C(=O)N[C@H]5C(C)(C)[C@H](Oc6ccc(C#N)c(Cl)c6)C5(C)C)cn4)CC3)c2F)c2cc[nH]c2c1=O [Compound I-135] | > 3000 | < 500
16 | – | < 500 | Cn1cc(-c2cc(NS(=O)(=O)C3CC3)ccc2Oc2cccc(CCOC3CCN(c4ncc(C(=O)N[C@H]5C(C)(C)[C@H](Oc6ccc(C#N)c(Cl)c6)C5(C)C)cn4)CC3)c2F)c2cc[nH]c2c1=O [Compound I-136] | < 500 | < 500
17 | – | < 500 | CCS(=O)(=O)Nc1ccc(Oc2ccc(OCCOC3CCN(c4ncc(C(=O)N[C@H]5C(C)(C)[C@H](Oc6ccc(C#N)c(Cl)c6)C5(C)C)cn4)CC3)cc2)c(-c2cn(C)c(=O)c3[nH]ccc23)c1 [Compound I-139] | < 500 | < 500
18 | – | 1500 to 3000 | Cn1cc(-c2cc(NS(=O)(=O)C3CC3)ccc2Oc2cccc(CCOC3CCN(c4ncc(C(=O)N[C@H]5C(C)(C)[C@H](Oc6ccc(C#N)c(Cl)c6)C5(C)C)cn4)CC3)c2)c2cc[nH]c2c1=O [Compound I-145] | > 3000 | < 500
19 | < 500 | – | CCS(=O)(=O)Nc1ccc(Oc2cc(OCCOC3CCN(c4ncc(C(=O)N[C@H]5C(C)(C)[C@H](Oc6ccc(C#N)c(Cl)c6)C5(C)C)cn4)CC3)ccc2F)c(-c2cn(C)c(=O)c3[nH]ccc23)c1 [Compound I-150] | > 3000 | < 500
20 | – | < 500 | CCS(=O)(=O)Nc1ccc(Oc2ccc(CCCOC3CCN(c4ncc(C(=O)N[C@H]5C(C)(C)[C@H](Oc6ccc(C#N)c(Cl)c6)C5(C)C)cn4)CC3)cc2)c(-c2cn(C)c(=O)c3[nH]ccc23)c1 [Compound I-152] | < 500 | < 500
